Columns and labels:
[1] = tested on: TgCRND8 mice; test: Morris Water Maze, TgCRND8 mice dosed 3 to 4 months, 3.3-30 mg/kg/day (Example 3); format: in vivo
Method: 8 mice were treated with scyllo-cyclohexanehexyl by oral gavage from 3 to 4 months. […] Animals were assessed at 4 months of age. Behavioural tests: Morris Water Maze testing was performed as previously described (Janus C, et al., 2000, Nature 408:979-982). After non-spatial pre-training, mice underwent place discrimination training for 5 days with 4-trials per day. Data were subjected to a repeated measures analysis of variance (ANOVA) with treatment (untreated, scyllo-cyclohexanehexyl) as the between subject factor. Cerebral plaque burden. Brains were removed and one hemisphere was fixed in 4% paraformaldehyde and embedded in paraffin wax in the mid sagittal plane. To generate sets of systematic uniform random sections, 5 μm serial sections were collected across the entire hemisphere. Sets of sections at 50 μm intervals were used for analyses (10-14 sections/set). Plaques were identified after antigen retrieval with formic acid, and incubation with primary anti-Aβ antibody (Dako M-0872), followed by secondary antibody (Dako StreptABCcomplex/horseradish kit). […] Aβ plaque burden was assessed with Leco IA-3001 image analysis software interfaced with Leica microscope and Hitachi KP-M1U CCD video camera. […] Vascular Aβ burden was defined as Aβ plaques originating from or surrounding blood vessels and was analysed similarly. […] The total swim path length to find the hidden platform is evaluated. […]

[2] = tested on: TgCRND8 mice; test: TgCRND8 effective dose range (0.3-3.3 mg/kg/day, 3 to 4 months): Morris Water Maze; format: in vivo; conditions: for effect on cognitive dysfunction and plaque burden: oral gavage twice daily
Method: The highest possible dose level of scyllo-cyclohexanehexyl compound was administered in a CRND8 mouse model. […]8 mice were dosed for 28 days from 3 to 4 months of age, i.e. a time when the disease phenotype would be newly established. This study design was selected to enhance the efficiency of the study (dose earlier) and maximise the information obtained (dose at a time when changes are of sufficient magnitude to detect a treatment effect). […] Cognitive function and plaque burden were assessed. • Improvement of cognitive function: Animals were assessed using the Morris Water Maze at 4 months (FIG. 11). […] This path length was similar to that observed in previous experiments in mice dosed with the compound in drinking water ad libitum. […] Thus a clear dose response was observed.

## scyllo-inositol [AZD-103]
[1]; Morris Water Maze, TgCRND8 mice aged 4 months, oral twice daily
  maximally efficacious dose level: 3.3 mg/kg/day
[1]; TgCRND8 mice treated 3 to 4 months, all dose levels, p=0.003, 0.008, 0.002 for 3.3, 10 and 30 mg/kg/day
  swim path length (Morris Water Maze) after 5 days of assessment vs placebo: significantly shorter
[2]; TgCRND8 mice, 0.3 mg/kg/day, 28 days from 3 to 4 months
  swim path length vs untreated controls: indistinguishable from untreated controls
[2]; TgCRND8 mice, 0.3 mg/kg/day, compared to untreated animals
  effect on cognitive dysfunction and plaque burden: no observed effect
[2]; TgCRND8 mice, 1.0 mg/kg/day
  effect on cognitive dysfunction and plaque burden: partial effectiveness
[2]; TgCRND8 mice, 3.3 mg/kg/day, 28 days from 3 to 4 months, p=0.04
  swim path length on day 5 of training vs untreated animals: significantly shorter swim path length
[2]; TgCRND8 mice, 3.3 mg/kg/day
  effect on cognitive dysfunction and plaque burden: significant alleviation of cognitive dysfunction and reduction in plaque burden
[2]; young CRND8 mice dosed 12-16 weeks of age, oral
  dose providing efficacy in terms of behaviour and Aβ accumulation: 3.3 mg/kg/day

Source: US20100113613A1, “CYCLOHEXANE POLYALCOHOL FORMULATION FOR TREATMENT OF DISORDERS OF PROTEIN AGGREGATION” (WARATAH PHARMACEUTICALS, priority 2006, published 2010)
